Callose deposition data for one compound are collected here from US8642837B2, “Method to increase pathogen resistance in plants” (Expressive Research B.V., priority 2004, dated 2014).

This assay has as its system callose deposition. Nature of the assay: Callose deposition in plants tested with Peronospora parasitica. Type of assay: in vivo, Arabidopsis. Particulars: treatment with BABA, positive control.

Regarding `CC(N)CC(=O)O` (stereo not drawn) [BABA, β-aminobutyric acid], the callose deposition is reported as “increased”.
